Reference: the SangsterLogP compilation

logP | SMILES
3.3 | Oc1ccccc1C=NN=c1ccn(CCc2ccccc2)cc1
3.9 | Cc1ccccc1C=NN=c1ccn(Cc2c(Cl)cccc2Cl)cc1
4 | C(CCc1ccccc1)=NN=c1ccn(CCCc2ccccc2)cc1
3.4 | COc1ccccc1C=NN=c1ccn(Cc2c(Cl)cccc2Cl)cc1
3.3 | Cc1cccc(C)c1C=NN=c1ccn(Cc2c(Cl)cccc2Cl)cc1
3.3 | Oc1ccccc1C=NN=c1ccn(Cc2c(Cl)cccc2Cl)cc1
3.4 | COc1ccc(C=NN=c2ccn(CCCc3ccccc3)cc2)cc1
3.9 | Cc1ccccc1C=NN=c1ccn(Cc2ccccc2)cc1
3.3 | Cc1cccc(C)c1C=NN=c1ccn(CCCc2ccccc2)cc1
4 | Clc1cccc(Cl)c1C=NN=c1ccn(CCCCCc2ccccc2)cc1
3.3 | COc1ccccc1C=NN=c1ccn(Cc2ccccc2)cc1
3.5 | COc1cccc(OC)c1C=NN=c1ccn(CCCCCc2ccccc2)cc1
3.9 | O=[N+]([O-])c1ccc(C=NN=c2ccn(CCCCc3ccccc3)cc2)cc1
3.9 | Cc1ccc(C=NN=c2ccn(Cc3ccccc3)cc2)cc1
3.8 | Cc1cccc(C=NN=c2ccn(CCCN3C(=O)c4ccccc4C3=O)cc2)c1
3.8 | O=[N+]([O-])c1ccc(C=NN=c2ccn(Cc3ccccc3)cc2)cc1
4.1 | O=C1c2ccccc2C(=O)N1CCCn1ccc(=NN=Cc2ccc3ccccc3c2)cc1
3.8 | O=[N+]([O-])c1ccc(C=NN=c2ccn(CC=Cc3ccccc3)cc2)cc1
3.9 | Clc1cccc(Cl)c1C=NN=c1ccn(Cc2ccccc2)cc1
3.7 | Fc1cccc(C=NN=c2ccn(Cc3ccccc3)cc2)c1
4 | O=[N+]([O-])c1ccc(C=NN=c2ccn(CCCCCc3ccccc3)cc2)cc1
3.4 | COc1ccccc1C=NN=c1ccn(Cc2ccc3ccccc3c2)cc1
4 | Cc1cccc(C=NN=c2ccn(CCCc3ccccc3)cc2)c1
3.8 | Clc1ccccc1C=NN=c1ccn(Cc2ccccc2)cc1
4.3 | C(=NN=c1ccn(CCCCc2ccccc2)cc1)c1cccc2ccccc12
3.8 | Fc1ccc(Cn2ccc(=NN=Cc3ccc(Cl)cc3)cc2)cc1

logP | SMILES
4 | Clc1cccc(Cl)c1C=NN=c1ccn(CCCCc2ccccc2)cc1
4 | Clc1cccc(Cl)c1C=NN=c1ccn(CCc2ccccc2)cc1
3.9 | Fc1cccc(C=NN=c2ccn(Cc3ccccc3Br)cc2)c1
4 | Cc1ccc(C=NN=c2ccn(CCCCc3ccccc3)cc2)cc1
4.4 | Clc1cccc(Cl)c1Cn1ccc(=NN=Cc2c3ccccc3cc3ccccc23)cc1
4 | Clc1cccc(Cl)c1C=NN=c1ccn(Cc2c(Cl)cccc2Cl)cc1
4.4 | C(=NN=c1ccn(CCCCc2ccccc2)cc1)c1c2ccccc2cc2ccccc12
3.4 | COc1ccc(C=NN=c2ccn(CCCCc3ccccc3)cc2)cc1
3.4 | COc1ccc(C=NN=c2ccn(CCc3ccccc3)cc2)cc1
3.4 | COc1ccccc1C=NN=c1ccn(CCc2ccccc2)cc1
3.4 | Cc1cccc(C)c1C=NN=c1ccn(CCCCCc2ccccc2)cc1
3.3 | Cc1cccc(C)c1C=NN=c1ccn(CCCCc2ccccc2)cc1
4 | O=[N+]([O-])c1ccc(C=NN=c2ccn(Cc3c(Cl)cccc3Cl)cc2)cc1
3.9 | Brc1ccc(C=NN=c2ccn(CCCCc3ccccc3)cc2)cc1
3.8 | CCCCCCn1ccc(=NN=Cc2ccc(C)cc2)cc1
3.4 | COc1ccc(C=NN=c2ccn(Cc3c(Cl)cccc3Cl)cc2)cc1
3.3 | Oc1ccccc1C=NN=c1ccn(CCCc2ccccc2)cc1
3.9 | Fc1ccc(Cn2ccc(=NN=CCCc3ccccc3)cc2)cc1
3.9 | C(Cc1ccccc1)=NN=c1ccn(CCCc2ccccc2)cc1
3.9 | Brc1ccccc1Cn1ccc(=NN=CCCc2ccccc2)cc1
3.9 | Clc1ccccc1C=NN=c1ccn(CCCc2ccccc2)cc1
3.4 | COc1cccc(OC)c1C=NN=c1ccn(CCc2ccccc2)cc1
4.3 | C(=NN=c1ccn(CCCc2ccccc2)cc1)c1cccc2ccccc12
4 | Cc1ccc(C=NN=c2ccn(CC=Cc3ccccc3)cc2)cc1
3.9 | Clc1ccccc1C=NN=c1ccn(Cc2c(Cl)cccc2Cl)cc1
4.2 | C(=NN=c1ccn(Cc2ccccc2)cc1)c1ccc2ccccc2c1

logP | SMILES
3.3 | COc1cccc(OC)c1C=NN=c1ccn(Cc2ccccc2)cc1
3.2 | Oc1ccccc1C=NN=c1ccn(Cc2ccccc2)cc1
3.4 | COc1cccc(OC)c1C=NN=c1ccn(-c2c(Cl)cccc2Cl)cc1
3.9 | Cc1cccc(Cn2ccc(=NN=CCCc3ccccc3)cc2)c1C
3.9 | Fc1cc(Br)ccc1Cn1ccc(=NN=CCCc2ccccc2)cc1
4.4 | C(=NN=c1ccn(CCCCCc2ccccc2)cc1)c1cccc2ccccc12
3.8 | Fc1cccc(C=NN=c2ccn(CCCc3ccccc3)cc2)c1
4 | Cc1ccc(C=NN=c2ccn(CCc3ccccc3)cc2)cc1
4 | Brc1ccc(C=NN=c2ccn(CCCCCc3ccccc3)cc2)cc1
3.4 | COc1cccc(OC)c1C=NN=c1ccn(CCCCc2ccccc2)cc1
3.9 | C(Cc1ccccc1)=NN=c1ccn(Cc2ccccc2)cc1
3.8 | Clc1ccc(C=NN=c2ccn(Cc3ccccc3)cc2)cc1
3.4 | COc1cccc(OC)c1C=NN=c1ccn(CCCc2ccccc2)cc1
3.9 | Clc1cccc(Cl)c1Cn1ccc(=NN=Cc2ccc(Br)cc2)cc1
3.9 | Clc1ccc(C=NN=c2ccn(Cc3ccccc3Br)cc2)cc1
4 | Cc1ccccc1C=NN=c1ccn(CCCc2ccccc2)cc1
4.2 | C(=NN=c1ccn(Cc2ccccc2)cc1)c1cccc2ccccc12
4.4 | C(=NN=c1ccn(CCCCCc2ccccc2)cc1)c1c2ccccc2cc2ccccc12
4.3 | Clc1cccc(Cl)c1Cn1ccc(=NN=Cc2cccc3ccccc23)cc1
3.9 | Clc1ccc(C=NN=c2ccn(CC=Cc3ccccc3)cc2)cc1
3.9 | Brc1ccc(C=NN=c2ccn(Cc3ccccc3)cc2)cc1
3.9 | Clc1ccc(C=NN=c2ccn(Cc3ccccc3I)cc2)cc1
4.4 | C(=NN=c1ccn(CCc2ccccc2)cc1)c1c2ccccc2cc2ccccc12
3.9 | Cc1ccc(C=NN=c2ccn(Cc3c(Cl)cccc3Cl)cc2)cc1
4 | Cc1ccc(C=NN=c2ccn(Cc3ccc4ccccc4c3)cc2)cc1
4.4 | C(=NN=c1ccn(CCCc2ccccc2)cc1)c1c2ccccc2cc2ccccc12

logP | SMILES
4 | Fc1ccc(Br)cc1Cn1ccc(=NN=Cc2ccc(Cl)cc2)cc1
3.5 | COc1ccc(C=NN=c2ccn(CCCCCc3ccccc3)cc2)cc1
4.3 | C(=NN=c1ccn(Cc2ccccc2)cc1)c1c2ccccc2cc2ccccc12
3.4 | COc1ccc(C=NN=c2ccn(CCCCCN3C(=O)c4ccccc4C3=O)cc2)cc1
3.8 | Fc1ccc(C=NN=c2ccn(CCCc3ccccc3)cc2)cc1
4.3 | C(=NN=c1ccn(CCc2ccccc2)cc1)c1cccc2ccccc12
3.3 | COc1ccc(C=NN=c2ccn(Cc3ccccc3)cc2)cc1
4.4 | C(=NN=c1ccn(Cc2ccc3ccccc3c2)cc1)c1cccc2ccccc12
3.9 | Clc1ccccc1C=NN=c1ccn(CCc2ccccc2)cc1
3.7 | Fc1ccc(C=NN=c2ccn(Cc3ccccc3)cc2)cc1
4.1 | Cc1ccc(C=NN=c2ccn(CCCCCc3ccccc3)cc2)cc1
3.8 | O=[N+]([O-])c1ccc(C=NN=c2ccn(CCCc3ccccc3)cc2)cc1
3.3 | Cc1cccc(C)c1C=NN=c1ccn(CCc2ccccc2)cc1
3.5 | COc1ccccc1C=NN=c1ccn(CC=Cc2ccccc2)cc1
3.9 | O=[N+]([O-])c1ccc(C=NN=c2ccn(CCc3ccccc3)cc2)cc1
4 | C(CCc1ccccc1)=NN=c1ccn(Cc2ccccc2)cc1
3.6 | Cc1ccc(C=NN=c2ccn(CCCN3C(=O)c4ccccc4C3=O)cc2)cc1
4 | Cc1cccc(C)c1C=NN=c1ccn(Cc2ccccc2)cc1
4 | Cc1ccc(C=NN=c2ccn(CCCc3ccccc3)cc2)cc1
4 | Cc1ccc(C)c(-n2ccc(=NN=Cc3ccc(Cl)cc3)cc2)c1
3.9 | Brc1ccc(C=NN=c2ccn(CCCc3ccccc3)cc2)cc1
4.3 | C(=NN=c1ccn(CCCc2ccccc2)cc1)c1ccc2ccccc2c1
3.4 | COc1ccc(C=NN=c2ccn(CC=Cc3ccccc3)cc2)cc1
3.4 | COc1ccccc1C=NN=c1ccn(CCCc2ccccc2)cc1
3.9 | Clc1ccc(C=NN=c2ccn(CCCc3ccccc3)cc2)cc1
